Test results: patent publication US11674959B2, “Methods for identifying and preparing pharmaceutical agents for activating Tie1 and/or Tie2 receptors” (The Johns Hopkins University, priority 2017, dated 2023)

Key:
Tie2 [1] = test: Western blot of MEC lysates, Ang1/2 signaling: Tie2 phosphorylation; assay type: cell-based, human
Procedure: To investigate the effects of the integrin inhibitor AXT107 on Tie2 signaling, confluent monolayers of microvascular endothelial cells (MECs) on fibronectin-coated dishes were treated with various concentrations of AXT107 followed by exposure to the Tie2 ligands Ang1 or Ang2.
Human dermal microvascular endothelial cells (Lonza) were maintained at 37° C. and 5% CO2 in EBM-2MV medium (Lonza) and used between passages two through seven. Where applicable, cells were serum starved in EBM-2 medium (Lonza) with no supplements. For FITC-Dextran permeability assays phenol red-free media were used to avoid auto-fluorescence. AXT107 were manufactured at New England Peptide by […], lyophilized, and dissolved in 100% DMSO.
For Ang1/2 signaling investigations, cell culture dishes (10 cm diameter) were coated with 5 μg/ml fibronectin (FN1; Sigma-Aldrich, St. Louis, Mo.) for two hours at 37° C. The FN1 solution was then removed by aspiration and 5×10^6 microvascular endothelial cells (MECs; Lonza, Walkersville, Md.) were plated in EGM-2MV media (Lonza) and cultured for forty-eight hours at 37° C. The cells were then serum starved for sixteen hours in serum-free EGM-2 base media (Lonza). AXT107 (0-100 μM, as indicated) was subsequently added to each culture and incubated for seventy-five minutes at 37° C. The cultures were then treated with 1 mM sodium vanadate (New England Biolabs, Ipswich, Mass.) for fifteen minutes to enhance the phospho-Tie2 signal followed by stimulation with 200 ng/ml angiopoietin (R&D Systems, Minneapolis, Minn.) for an additional fifteen minutes. The cells were then transferred to ice, washed twice with ice cold Dulbecco's phosphate-buffered saline (dPBS) containing Ca^2+ and Mg^2+, and collected by scraping in 500 μl of 1× Blue Loading Buffer (Cell Signaling, Danvers, Mass.). Lysate samples were then sonicated, boiled, and resolved by SDS-PAGE. Specific proteins were identified by Western blot, using the following primary antibodies: Cell Signaling—phospho-Tie2 (Y992) (Cat #: 4221), Tie2 (Cat #: 7403), phospho-Stat3 (Y705) (Cat #: 4113), Stat3 (Cat #: 4904), phospho-Akt (S473) (Cat #: 4058), Akt (Cat #: 9272), phospho-p44/42 MAPK (T202/Y204) (Cat #: 4370), p44/42 MAPK (Cat #: 4695); BD Transduction Laboratories—β1 integrin (Cat #: 610467); Millipore—α5 integrin (Cat #: AB1928) and detected with HRP-conjugated goat anti-rabbit and sheep anti-mouse secondary antibodies (GE healthcare).

[2] = test system: VEGFR2, cMet, PDGFRβ, and IGF1R; settings: VEGFR2, c-Met, literature; cited from earlier work
Tie2 [3] = test: Tie2 activation in vivo, retinopathy of prematurity (ROP) mouse model
From the text: To investigate the effects of AXT107 on Tie2 activation in vivo, retinopathy of prematurity (ROP) mouse model was used. In this system, P7 pups are placed in 75% O2 for five days, resulting in a loss of retinal capillary density from hyperoxia and a rapid induction of neovascularization upon the pup's return to normoxic conditions. […] Increased levels of Ang2 in the vitreous contribute to vessel leakage and macular edema in various retinopathies.

Tie2 [4] = test: Tie2 immunoprecipitation from fractionated MEC lysates, blotted for phospho-Tie2; assay type: cell-based, human; settings: Ang2 with or without AXT107; soluble vs insoluble fractions
Procedure: Next, experiments were performed to determine whether or not relocation of Tie2 to the insoluble fraction was important for Tie2's activation by Ang2. Tie2 was immunoprecipitated from fractionated MEC lysates exposed to Ang2 with or without AXT107 and then immunoblotted for phospho-Tie2.
(§1) The isolation of Triton X-100 soluble and insoluble fractions was performed using modifications to previously-described procedures (see, e.g., Lampugnani et al., J Cell Biol. 1995; 129(1):203-217). FN1-coated six-well plates were seeded with 2.5×10^6 cells and cultured for forty-eight hours, as described above. The cultures were then serum starved for ninety minutes in EBM-2 media, treated with 100 μM AXT107 or DMSO vehicle, and fifteen minutes with 1 mM sodium vanadate. The cells were then stimulated with either 100 ng/ml VEGFA, 400 ng/ml Ang2, or PBS for fifteen minutes. The plates were then transferred to ice and washed twice with cold dPBS containing Ca^2+ and Mg^2+ and twice with EBM-2 media. The media was then removed and the cells incubated for thirty minutes on ice, at 4° C. in 200 μl of Triton X-100 extraction buffer (10 mM Tris-HCl, pH 7.5; 150 mM NaCl; 2 mM CaCl2; 1% NP-40; 1% Triton C-100; and a protease inhibitor cocktail (Cell Signaling, Cat #: 5871)) with occasional agitation. […] Samples were analyzed by western blot as described above. […]

α5β1 integrin = molecular target: T1, α5β1 integrin (Homo sapiens, UniProt P05556+P08648); test: Immunoprecipitation of α5 integrin in Triton X-100 fractionated lysates, blotted for β1; assay type: cell-based; settings: after AXT107 treatment; data not shown
T1 construct: host or cells: human dermal microvascular endothelial cells (MECs)
T1 sequence (P08648 42-894 limits assumed): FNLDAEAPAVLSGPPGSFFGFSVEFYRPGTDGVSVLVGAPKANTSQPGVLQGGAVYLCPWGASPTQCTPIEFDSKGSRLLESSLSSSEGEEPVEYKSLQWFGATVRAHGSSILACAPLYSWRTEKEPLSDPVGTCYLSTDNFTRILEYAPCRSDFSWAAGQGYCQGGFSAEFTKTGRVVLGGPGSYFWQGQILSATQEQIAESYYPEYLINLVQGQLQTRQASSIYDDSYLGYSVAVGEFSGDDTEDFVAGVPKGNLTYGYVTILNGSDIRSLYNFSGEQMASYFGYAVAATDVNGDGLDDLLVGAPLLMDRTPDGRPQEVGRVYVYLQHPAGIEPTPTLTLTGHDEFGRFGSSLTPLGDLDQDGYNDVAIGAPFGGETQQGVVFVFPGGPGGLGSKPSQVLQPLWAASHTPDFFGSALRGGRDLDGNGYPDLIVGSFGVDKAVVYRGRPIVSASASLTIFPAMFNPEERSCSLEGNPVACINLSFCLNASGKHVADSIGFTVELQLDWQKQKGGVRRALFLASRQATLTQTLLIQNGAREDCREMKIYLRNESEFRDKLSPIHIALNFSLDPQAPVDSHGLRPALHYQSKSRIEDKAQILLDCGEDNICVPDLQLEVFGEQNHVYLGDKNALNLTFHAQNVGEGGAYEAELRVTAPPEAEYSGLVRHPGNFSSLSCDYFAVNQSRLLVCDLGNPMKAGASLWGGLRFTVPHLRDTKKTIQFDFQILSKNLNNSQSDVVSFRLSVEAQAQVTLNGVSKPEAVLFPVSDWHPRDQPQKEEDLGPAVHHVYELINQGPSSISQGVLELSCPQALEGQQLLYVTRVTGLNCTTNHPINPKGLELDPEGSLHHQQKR
T1 sequence (P08648 895-1049 limits assumed): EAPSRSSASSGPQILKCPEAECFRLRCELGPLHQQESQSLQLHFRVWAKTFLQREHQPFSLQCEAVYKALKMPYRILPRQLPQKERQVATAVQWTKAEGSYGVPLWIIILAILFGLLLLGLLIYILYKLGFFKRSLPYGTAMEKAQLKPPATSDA
T1 sequence (P05556 21-798): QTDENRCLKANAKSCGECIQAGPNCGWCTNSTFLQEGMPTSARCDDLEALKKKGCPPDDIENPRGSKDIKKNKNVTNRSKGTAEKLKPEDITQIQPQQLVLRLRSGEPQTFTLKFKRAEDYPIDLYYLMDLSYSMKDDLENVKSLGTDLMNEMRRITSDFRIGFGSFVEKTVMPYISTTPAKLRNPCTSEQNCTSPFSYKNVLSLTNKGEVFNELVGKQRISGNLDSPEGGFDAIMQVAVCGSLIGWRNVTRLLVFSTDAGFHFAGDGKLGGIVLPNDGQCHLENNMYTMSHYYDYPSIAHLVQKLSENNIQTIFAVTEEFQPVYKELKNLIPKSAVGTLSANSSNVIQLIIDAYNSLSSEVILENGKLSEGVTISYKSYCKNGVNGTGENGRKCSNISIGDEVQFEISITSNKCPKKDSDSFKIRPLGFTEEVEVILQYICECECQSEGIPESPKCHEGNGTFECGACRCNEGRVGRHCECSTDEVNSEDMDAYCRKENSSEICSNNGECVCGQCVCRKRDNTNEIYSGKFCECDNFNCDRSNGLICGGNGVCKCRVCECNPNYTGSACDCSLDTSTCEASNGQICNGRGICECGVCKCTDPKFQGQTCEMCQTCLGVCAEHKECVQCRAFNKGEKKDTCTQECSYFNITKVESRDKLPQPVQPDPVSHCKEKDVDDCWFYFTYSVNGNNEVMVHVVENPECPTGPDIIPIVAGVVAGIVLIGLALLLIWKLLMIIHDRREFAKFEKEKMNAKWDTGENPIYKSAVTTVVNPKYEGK
From the text: Since β1 integrin is the only known β subunit to heterodimerize with the α5 integrin subunit, it unlikely that the α5 subunit, that was observed here in the insoluble fractions, originated from a heterodimeric integrin pair other than α5β1. Unfortunately, high background impaired the visualization of α5 integrin alone by immunofluorescence. Given the unexpected discovery that AXT107 dissociates the integrin heterodimer, this discovery was confirmed in several independent assays. […] Thus, interactions between Tie2 and heterodimerized α5β1 integrin appear to retain Tie2 at the EC-ECM interface.
as §1, with “media.” for “media. The media was then removed and the cells incubated for thirty minutes on ice, at 4° C. in 200 μl of Triton X-100 extraction buffer (10 mM Tris-HCl, pH 7.5; 150 mM NaCl; 2 mM CaCl2; 1% NP-40; 1% Triton C-100; and a protease inhibitor cocktail (Cell Signaling, Cat #: 5871)) with occasional agitation.”

Sequence: LRRFSTAPFAFIDINDVINF [AXT107]
- Tie2 phosphorylation (Tie2 [1]; AXT107 (0-100 μM) in combination with 200 ng/ml Ang2): significant, dose-dependent increase in Tie2 phosphorylation
- Influence on Ang1 activity (Tie2 phosphorylation) (Tie2 [1]; MECs on fibronectin, AXT107 then Ang1, data not shown): did not significantly influence Ang1 activity
- Phosphorylation by peptide alone (Tie2 [1]; absence of either ligand): phosphorylation was not induced by peptide alone
- Total protein levels of Tie2 and the downstream targets (Tie2 [1]; data not shown): remained unchanged
- Receptor phosphorylation and downstream signals of RTKs [2]: significantly decreases receptor phosphorylation and downstream signals
- Activation of Tie2 by Ang2 in vivo (Tie2 [3]): potentiates the activation of Tie2 by Ang2 both in vitro and in vivo
- Tie2 phosphorylation by fraction (Tie2 [4]): phosphorylation was observed only in the insoluble fractions of peptide-treated samples
- α5-β1 interaction by fraction after α5 immunoprecipitation (α5β1 integrin): interactions with β1 were only found in the soluble fractions
